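GI50 marks 50% less growth. TGI: total growth inhibition.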
Assays:
Test in all cases: NCI-60 cell line screen, 384-well format
NCI-H322M lung = tested on: NCI-H322M lung
OVCAR-5 ovarian = tested on: OVCAR-5 ovarian
IGROV1 ovarian = tested on: IGROV1 ovarian
COLO 205 colon = tested on: COLO 205 colon
ACHN renal = tested on: ACHN renal
MALME-3M melanoma = tested on: MALME-3M melanoma
HCC-2998 colon = tested on: HCC-2998 colon
KM12 colon = tested on: KM12 colon
HS 578T breast = tested on: HS 578T breast
HL-60(TB) leukemia = tested on: HL-60(TB) leukemia
T-47D breast = tested on: T-47D breast
SF-295 CNS = tested on: SF-295 CNS
U251 glioblastoma = tested on: U251 glioblastoma
SNB-19 CNS = tested on: SNB-19 CNS
SK-MEL-28 melanoma = tested on: SK-MEL-28 melanoma
A549 NSCLC = tested on: A549 NSCLC
RPMI-8226 leukemia = tested on: RPMI-8226 leukemia
M14 melanoma = tested on: M14 melanoma
OVCAR-8 ovarian = tested on: OVCAR-8 ovarian
BT-549 breast = tested on: BT-549 breast
UACC-257 melanoma = tested on: UACC-257 melanoma
RXF 393 renal = tested on: RXF 393 renal
OVCAR-4 ovarian = tested on: OVCAR-4 ovarian
SK-MEL-5 melanoma = tested on: SK-MEL-5 melanoma
NCI/ADR-RES ovarian = tested on: NCI/ADR-RES ovarian
NCI-H23 lung = tested on: NCI-H23 lung
HOP-92 NSCLC = tested on: HOP-92 NSCLC
HT29 colon = tested on: HT29 colon
UO-31 renal = tested on: UO-31 renal

Question: How did the GI50 (NCI-H322M lung) turn out when `O=C(Nc1cc(F)c(F)cc1C(=O)O)c1ccc(-n2ccnc2)nn1` was run?
Answer: > 100 µM

Question: What about the TGI (NCI-H322M lung) of the same molecule?
Answer: > 100 µM

Question: And the GI50 (OVCAR-5 ovarian)?
Answer: > 100 µM

Question: What about the TGI (OVCAR-5 ovarian) of the same molecule?
Answer: > 100 µM

Question: And the GI50 (IGROV1 ovarian)?
Answer: > 100 µM

Question: And the TGI (IGROV1 ovarian)?
Answer: > 100 µM

Question: What about the GI50 (COLO 205 colon) of the same molecule?
Answer: > 100 µM

Question: And the TGI (COLO 205 colon)?
Answer: > 100 µM

Question: What about the GI50 (ACHN renal) of the same molecule?
Answer: > 100 µM

Question: What about the TGI (ACHN renal) of the same molecule?
Answer: > 100 µM

Question: What about the GI50 (MALME-3M melanoma) of the same molecule?
Answer: > 100 µM

Question: What about the TGI (MALME-3M melanoma) of the same molecule?
Answer: > 100 µM

Question: What about the GI50 (HCC-2998 colon) of the same molecule?
Answer: > 100 µM

Question: And the TGI (HCC-2998 colon)?
Answer: > 100 µM

Question: And the GI50 (KM12 colon)?
Answer: > 100 µM

Question: And the TGI (KM12 colon)?
Answer: > 100 µM

Question: And the GI50 (HS 578T breast)?
Answer: > 100 µM

Question: What about the TGI (HS 578T breast) of the same molecule?
Answer: > 100 µM

Question: What about the GI50 (HL-60(TB) leukemia) of the same molecule?
Answer: > 100 µM

Question: What about the TGI (HL-60(TB) leukemia) of the same molecule?
Answer: > 100 µM

Question: And the GI50 (T-47D breast)?
Answer: > 100 µM

Question: And the TGI (T-47D breast)?
Answer: > 100 µM

Question: And the GI50 (SF-295 CNS)?
Answer: > 100 µM

Question: What about the TGI (SF-295 CNS) of the same molecule?
Answer: > 100 µM

Question: And the GI50 (U251 glioblastoma)?
Answer: > 100 µM

Question: And the TGI (U251 glioblastoma)?
Answer: > 100 µM

Question: What about the GI50 (SNB-19 CNS) of the same molecule?
Answer: > 100 µM

Question: What about the TGI (SNB-19 CNS) of the same molecule?
Answer: > 100 µM

Question: And the GI50 (SK-MEL-28 melanoma)?
Answer: > 100 µM

Question: What about the TGI (SK-MEL-28 melanoma) of the same molecule?
Answer: > 100 µM

Question: And the GI50 (A549 NSCLC)?
Answer: > 100 µM

Question: And the TGI (A549 NSCLC)?
Answer: > 100 µM

Question: What about the GI50 (RPMI-8226 leukemia) of the same molecule?
Answer: > 100 µM

Question: What about the TGI (RPMI-8226 leukemia) of the same molecule?
Answer: > 100 µM

Question: What about the GI50 (M14 melanoma) of the same molecule?
Answer: > 100 µM

Question: And the TGI (M14 melanoma)?
Answer: > 100 µM

Question: What about the GI50 (OVCAR-8 ovarian) of the same molecule?
Answer: > 100 µM

Question: And the TGI (OVCAR-8 ovarian)?
Answer: > 100 µM

Question: What about the GI50 (BT-549 breast) of the same molecule?
Answer: > 100 µM

Question: And the TGI (BT-549 breast)?
Answer: > 100 µM

Question: And the GI50 (UACC-257 melanoma)?
Answer: > 100 µM

Question: What about the TGI (UACC-257 melanoma) of the same molecule?
Answer: > 100 µM

Question: And the GI50 (RXF 393 renal)?
Answer: > 100 µM

Question: What about the TGI (RXF 393 renal) of the same molecule?
Answer: > 100 µM

Question: What about the GI50 (OVCAR-4 ovarian) of the same molecule?
Answer: > 100 µM

Question: What about the TGI (OVCAR-4 ovarian) of the same molecule?
Answer: > 100 µM

Question: And the GI50 (SK-MEL-5 melanoma)?
Answer: 57.9 µM

Question: And the TGI (SK-MEL-5 melanoma)?
Answer: > 100 µM

Question: And the GI50 (NCI/ADR-RES ovarian)?
Answer: > 100 µM

Question: And the TGI (NCI/ADR-RES ovarian)?
Answer: > 100 µM

Question: And the GI50 (NCI-H23 lung)?
Answer: > 100 µM

Question: What about the TGI (NCI-H23 lung) of the same molecule?
Answer: > 100 µM

Question: And the GI50 (HOP-92 NSCLC)?
Answer: > 100 µM

Question: What about the TGI (HOP-92 NSCLC) of the same molecule?
Answer: > 100 µM

Question: And the GI50 (HT29 colon)?
Answer: > 100 µM

Question: And the TGI (HT29 colon)?
Answer: > 100 µM

Question: And the GI50 (UO-31 renal)?
Answer: > 100 µM

Question: And the TGI (UO-31 renal)?
Answer: > 100 µM

Source: PubChem BioAssay (NCI)
